This passage reports IC50 and EC50 results from patent US20250368646A1, “TRICYCLIC FUSED WRN INHIBITORS” (Nimbus Wadjet, Inc., priority 2024, published 2025).

In assay [1] the target is T1, human Werner helicase (WRN-BV08, amino acids 517-1235 with L1074F point mutation) (Homo sapiens, UniProt Q14191, L1074F).
T1 construct: [pFastBac1-WRN-(517-1235 L1074F)-TEV-8His]; 8xHis (C, cleaved yes); TEV cleavage site (ENLYFQG) (C); made in house; host or cells: Sf9 insect cells (baculovirus, pFastBac)
Description: ADP-Glo WRN helicase ATPase inhibition assay. In kind it is biochemical. Conditions: 0.15 nM WRN, 5 μM ATP, 0.1 nM DNA duplex; 15 minutes preincubation, 60 minutes at 25° C.; read-out: ADP-Glo_hWRN_IC50. The source says:
Bovine skin gelatin (BSG), dimethyl sulfoxide (DMSO), Pluronic F-127 and tris(2-carboxyethyl)phosphine hydrochloride solution (TCEP) were purchased from Sigma-Aldrich (St. Louis, MO) at the highest level of purity possible. Bicine buffer solution was purchased from Alfa Aesar (Tewksbury, MA) and compound NSC-617145 was purchased from Tocris (Minneapolis, MN). DNA duplex was synthesized at BGI (Shenzhen, China) and was composed of strand 1 with the sequence 5′-[…]-3′ (SEQ ID NO.: 1) and strand 2 with the sequence 5′-[…]-3′ (SEQ ID NO.: 2). DNA strands were annealed by heating to 95° C. for 5 minutes followed by slow cooling to room temperature. Compounds in 100% DMSO (0.1 μl) were spotted into a 384-well white polystyrene Optiplate-384 (Perkin Elmer; Waltham, MA) assay plate using a LabCyte Echo 550 (Agilent; Santa Clara, CA). DMSO (0.1 μl) was added to columns 12, rows A-H and column 24, rows I-P for the maximum signal control. Compound NSC-617145 (0.1 μl) was added to columns 12, rows I-P and 24, rows A-H for the minimum signal control (100% inhibition). Compounds/DMSO were preincubated for 15 minutes at 25° C. with 5 μl 2×WRN (BV08), prepared as described below, in assay buffer containing 20 mM Bicine (pH=7.5), 1 mM MgCl2, 10 mM KCl, 0.1% Pluronic F-127, 0.005% BSG, 1 mM TCEP. The reaction was initiated by the addition of 5 μl 2× substrate mixture in assay buffer and incubated for 60 minutes at 25° C. The final concentrations of the assay components were 0.15 nM WRN, 5 μM ATP, and 0.1 nM DNA duplex. The final DMSO concentration was 1% and the reference compound concentration (NSC-617145) used for the minimal signal control was 20 μM. The reaction was stopped by the addition of the ADP-Glo Kit components (Promega; Madison, WI) as directed and the relative luminescence units (RLU) were read on an Envision 2104 (Perkin Elmer; Waltham, MA). % inhibition calculation:
Where RLU=relative luminescence units, sample=signal in sample well, and MIN and MAX are the respective minimum and maximum signal controls.
Four-Parameter IC50 Fit Equation:
Where top and bottom are normally allowed to float but may be fixed at 100 or 0 respectively in a 3-parameter fit. Y is the % inhibition and X is the compound concentration.
Molecular Biology and virus production. The DNA encoding human Werner helicase (Uniprot Q14191, amino acids 517-1235 with L1074F point mutation) was generated with codon-optimization for E. coli expression and subcloned into the pFastBac vector with a TEV cleavable 8×His tag (SEQ ID NO: 5) (WRN-BV08). The baculovirus from the expression plasmid WRN-BV08 was generated from transfection and amplification following the manufacturer's instructions.
Sf9 cells grown in SF900II media were infected with 1:200 WRN-BV08 P2 virus and incubated for protein expression for 72 h at 27° C. The WRN protein was purified using the following protocol. The cell pellets were thawed and resuspended in buffer A (50 mM Tris, pH 7.5, 500 mM NaCl, 1 mM TCEP, 10% Glycerol) supplemented with 0.5% CHAPS, 1 mM PMSF, […] Leupeptin, 1 μg/ml Pepstatin, and the Pierce Universal Nuclease and cocktail tablet. Cleared lysates were loaded onto a Ni Sepharose™ excel column and washed with buffer A and bound protein was eluted with buffer A supplemented with 300 mM imidazole. The eluted protein was dialyzed against buffer A and digested by His-tagged TEV (1:5 ratio) overnight at 4° C. ZnCl2 was added into the sample at final 15 μM before loading onto a second Ni Sepharose™ excel column. Untagged WRN protein was eluted from the column with buffer A supplemented with 20 mM imidazole, dialyzed overnight into buffer B (50 mM Tris, pH 7.5, 1 mM TCEP, 10% Glycerol) supplemented with 150 mM NaCl and loaded onto a Heparin column. Proteins were eluted with a step gradient of buffer B supplemented with 150 mM, 200 mM, 300 mM and 500 mM NaCl. […]
On the technique in general: ADP-Glo first removes unused ATP, then detects ADP through luciferase.

Assay [2] deals with p21 induction in HCT 116 cells. The assay is described as follows: p21 induction in cells (in-cell western, p21/GAPDH ratio). In kind it is cell-based. The following applies: Homo sapiens; HCT 116 colon carcinoma cell line, 24 h compound incubation; percent activation vs internal reference WRN inhibitor; read-out: P21_EC50. The protocol:
The colon carcinoma cell line HCT 116 was obtained from ATCC and cultured in growth medium consisting of Mccoy's 5A Medium (Gibco 16600108) supplemented with […] (Transgene FS201-02) and 100 units/mL penicillin-streptomycin (Gibco 15140122) and maintained at 37° C. under […]. On the day of seeding, 2,000 cells in 30 μL of culture media were plated per well to Poly-D-Lysine 384 Well Black Clear Plates (Biocoat 356663) and incubated overnight at 37° C. under 5% CO2. The following day, compounds were serially diluted in DMSO for a total of 11 test concentrations. The typical starting concentration of cpds was 10 μM with 2-fold dilutions. Next, 150 nL of diluted compound was added in duplicate to the assay plate, using an Echo 655 (Labcyte). The plate was centrifuged at 500 RPM for 1 min and then incubated at 37° C. under 5% CO2 for 24 h. After 24 h, medium was removed, and cells were fixed by adding 40 µL of 4% paraformaldehyde solution to each well and incubated for 20 min at room temperature. The plate was then washed 4 times with 100 μL per well of wash buffer (PBS with 0.1% Tween-20) using a microplate washer. Next, 30 μL of ice-cold methanol was added to each well and the plate was incubated at −20° C. for 10 min. The plate was washed 4 times with 100 μL per well of wash buffer by a microplate washer, then 30 μL per well of blocking buffer (Intercept PBS blocking buffer (LI-COR 927-70001) with 0.05% Tween-20) was added and the plate was incubated at room temperature with shaking for 2 h. Next, to each test well, 20 μL of primary antibody solution (p21 Waf1/CIP (12D1) Rabbit mAb (Cell Signaling Technologies 2947) diluted 1:1000 and GAPDH (D4C6R) Mouse mAb (Cell Signaling Technologies 97166) diluted 1:2000 in blocking buffer) was added and the plate was placed at 4° C., overnight. The following day, the plate was washed 5 times with 100 μL per well of wash buffer using a microplate washer for 5 min. 20 μL per well of secondary antibody (IRDye 680CW Goat anti-Mouse IgG (H+L) (LI-COR 926-68070) diluted 1: 2000 in Blocking Buffer and IRDye 800CW Goat anti-Rabbit IgG (H+L) (LI-COR 926-32211) diluted 1: 2000 in Blocking Buffer) was then added and the plate was stored for 2 h in the dark at room temperature with shaking. The plate was then washed 4 times with 100 μL per well of wash buffer again using a microplate washer. Finally, the p21 signal and the GAPDH signal were quantified using a LI-COR Odyssey CLx Imager machine reading at 800 nm and 700 nm, respectively. Each plate contained DMSO control (low control) and an internal reference WRN inhibitor (high control) respectively. For quantitation, the 800 nm/700 nm ratio was calculated for each well to give fold p21 induction and then percent activation for each compound well was calculated as follows (100×(ratio cpd well-ratio low control)/(ratio high control−ratio low control)). EC50 values for each compound were generated after non-linear regression curve fitting using commercially available software.

T1 sequence (Q14191 with tags, fused parts or gaps L1074F): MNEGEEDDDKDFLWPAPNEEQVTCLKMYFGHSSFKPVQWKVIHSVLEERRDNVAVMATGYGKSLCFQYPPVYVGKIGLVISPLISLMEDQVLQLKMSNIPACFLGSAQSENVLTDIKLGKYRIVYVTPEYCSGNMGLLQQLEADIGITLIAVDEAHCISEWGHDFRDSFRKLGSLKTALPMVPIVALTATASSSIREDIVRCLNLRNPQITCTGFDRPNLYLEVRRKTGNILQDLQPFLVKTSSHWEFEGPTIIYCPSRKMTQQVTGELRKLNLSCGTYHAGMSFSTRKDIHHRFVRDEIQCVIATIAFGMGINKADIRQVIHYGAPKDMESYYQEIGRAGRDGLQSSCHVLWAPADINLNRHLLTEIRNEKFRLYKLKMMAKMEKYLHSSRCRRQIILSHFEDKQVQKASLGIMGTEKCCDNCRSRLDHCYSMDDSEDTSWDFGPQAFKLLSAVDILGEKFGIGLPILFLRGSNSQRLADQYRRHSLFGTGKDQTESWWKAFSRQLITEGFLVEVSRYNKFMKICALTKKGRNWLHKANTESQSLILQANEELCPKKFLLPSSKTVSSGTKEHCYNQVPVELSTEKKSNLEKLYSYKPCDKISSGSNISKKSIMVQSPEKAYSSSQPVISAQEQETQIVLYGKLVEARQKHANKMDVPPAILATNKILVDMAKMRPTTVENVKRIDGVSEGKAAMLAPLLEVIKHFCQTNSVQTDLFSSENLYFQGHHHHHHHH

As to `COc1cc(-n2nc3c(=O)c(N4CCN(C(=O)c5ncnc(C)c5O)[C@H]5CC[C@@H]54)c4n(c3n2)[C@@H](C(=O)Nc2ccc(C(F)(F)F)cc2F)C[C@H]4C)ccn1` (single isomer, unassigned) [Compound I-10], the IC50 in assay [1] fell in the range of 100 to 500 nM. Besides, the EC50 in assay [2] lay within 2000 to 5000 nM.

For the molecule `Cc1cnc2c(n1)c(=O)c(N1CCN(C(=O)c3ncnc(C)c3O)[C@H]3CC[C@@H]31)c1n2[C@H](C(=O)Nc2ccc(C(F)(F)F)cc2Cl)C[C@H]1C` (single isomer, unassigned) [Compound I-11], the IC50 in assay [1] is no more than 5 nM. Further, in assay [2], the EC50 was no more than 500 nM.

On to `Cc1cnc2c(n1)c(=O)c(N1CCN(C(=O)c3ncnc(C)c3O)[C@H]3CC[C@@H]31)c1n2[C@@H](C(=O)Nc2ccc(C(F)(F)F)cc2Cl)C[C@@H]1C` (single isomer, unassigned) [Compound I-12], for which the IC50 in assay [1] was greater than 500 nM. Moreover, the EC50 in assay [2] was greater than 5000 nM.

As to `COc1cc(-n2nc3c(=O)c(N4CCN(C(=O)c5ncnc(C)c5O)[C@H]5CC[C@@H]54)c4n(c3n2)[C@@H](C(=O)Nc2ccc(C(F)(F)F)cc2Cl)C[C@@H]4C)ccn1` (single isomer, unassigned) [Compound I-14], the IC50 in assay [1] was 5 to 50 nM. Further, the EC50 in assay [2] is no more than 500 nM.

On to `COc1cc(-n2nc3c(=O)c(N4CCN(C(=O)c5ncnc(C)c5O)[C@H]5CC[C@@H]54)c4n(c3n2)[C@@H](C(=O)Nc2ccc(C(F)(F)F)cc2F)C[C@@H]4C)ccn1` (single isomer, unassigned) [Compound I-15], for which the IC50 in assay [1] is no more than 5 nM. Also, in assay [2], the EC50 was no more than 500 nM.

`COc1cc(-n2nc3c(=O)c(N4CCN(C(=O)c5ncnc(C)c5O)[C@H]5CC[C@@H]54)c4n(c3n2)[C@H](C(=O)Nc2ccc(C(F)(F)F)cc2F)C[C@H]4C)ccn1` (single isomer, unassigned) [Compound I-16]: in assay [1], the IC50 lay in the range of 100 to 500 nM. For the same molecule, the EC50 in assay [2] fell in the range of 500 to 2000 nM.

On to `Cc1nc2c(=O)c(N3CCN(C(=O)c4ncnc(C)c4O)[C@H]4CC[C@@H]43)c3n(c2nc1C)[C@@H](C(=O)Nc1ccc(C(F)(F)F)cc1Cl)C[C@@H]3C` (single isomer, unassigned) [Compound I-17], for which the IC50 in assay [1] was no more than 5 nM. In assay [2], the EC50 is no more than 500 nM.

Turning to `Cc1nc2c(=O)c(N3CCN(C(=O)c4ncnc(C)c4O)[C@H]4CC[C@@H]43)c3n(c2nc1C)[C@H](C(=O)Nc1ccc(C(F)(F)F)cc1Cl)C[C@@H]3C` (single isomer, unassigned) [Compound I-18], the IC50 in assay [1] is no more than 5 nM. Besides, the EC50 in assay [2] is no more than 500 nM.

In the case of `Cc1nc2c(=O)c(N3CCN(C(=O)c4ncnc(C)c4O)[C@H]4CC[C@@H]43)c3n(c2nc1C)[C@@H](C(=O)Nc1ccc(C(F)(F)F)cc1Cl)C[C@H]3C` (single isomer, unassigned) [Compound I-19], in assay [1], the IC50 lay within 50 to 100 nM. Further, the EC50 in assay [2] was 500 to 2000 nM.

In the case of `Cc1nc2c(=O)c(N3CCN(C(=O)c4ncnc(C)c4O)[C@H]4CC[C@@H]43)c3n(c2nc1C)[C@H](C(=O)Nc1ccc(C(F)(F)F)cc1Cl)C[C@H]3C` (single isomer, unassigned) [Compound I-20], the IC50 in assay [1] is greater than 500 nM. Besides, the EC50 in assay [2] is greater than 5000 nM.

For the molecule `Cc1ncnc(C(=O)N2CCN(c3c4n(c5nn(C6CC6)nc5c3=O)[C@@H](C(=O)Nc3ccc(C(F)(F)F)cc3Cl)C[C@H]4C)[C@H]3CC[C@@H]32)c1O` (single isomer, unassigned) [Compound I-21], in assay [1], the IC50 was no more than 5 nM. The EC50 in assay [2] was no more than 500 nM.

As to `Cc1ncnc(C(=O)N2CCN(c3c4n(c5nn(C6CC6)nc5c3=O)[C@H](C(=O)Nc3ccc(C(F)(F)F)cc3Cl)C[C@@H]4C)[C@H]3CC[C@@H]32)c1O` (single isomer, unassigned) [Compound I-22], the IC50 in assay [1] was in the range of 100 to 500 nM. For the same molecule, the EC50 in assay [2] was greater than 5000 nM.

As for `Cc1ncnc(C(=O)N2CCN(c3c4n(c5nn(C6=CCOCC6)nc5c3=O)[C@@H](C(=O)Nc3ccc(C(F)(F)F)cc3Cl)C[C@H]4C)[C@H]3CC[C@@H]32)c1O` (single isomer, unassigned) [Compound I-23], the IC50 in assay [1] was no more than 5 nM. Besides, in assay [2], the EC50 is no more than 500 nM.

Take `Cc1ncnc(C(=O)N2CCN(c3c4n(c5nn(C6=CCOCC6)nc5c3=O)[C@H](C(=O)Nc3ccc(C(F)(F)F)cc3Cl)C[C@@H]4C)[C@H]3CC[C@@H]32)c1O` (single isomer, unassigned) [Compound I-24]: the IC50 in assay [1] is greater than 500 nM. Further, the EC50 in assay [2] was greater than 5000 nM.

Take `Cc1ncnc(C(=O)N2CCN(c3c4n(c5nn(C6=CCOCC6)nc5c3=O)[C@H](C(=O)Nc3ccc(C(F)(F)F)cc3Cl)C[C@H]4C)[C@H]3CC[C@@H]32)c1O` (single isomer, unassigned) [Compound I-25]: the IC50 in assay [1] was greater than 500 nM. For the same molecule, the EC50 in assay [2] was greater than 5000 nM.
